From patent US20230391796A1, “GLYCOSIDASE INHIBITORS AND USES THEREOF” (UNIVERSIDAD DE SEVILLA (US) -UNIVERSITY OF SEVILLE (US), priority 2020, published 2023) come the findings set out here.

Where a name gives a salt, the structure may show the parent alone.

Common to all, as to type: biochemical
The target of experiment [1] is β-N-acetylglucosaminidase (from jack bean). Kind of experiment: Inhibition assay against commercial β-N-acetylglucosaminidase (jack bean), p-nitrophenyl N-acetyl-β-D-glucosaminide substrate. The settings on record: pH 5.5, 37° C.; average of three determinations ± s.e.m.; NI = no inhibition detected at 200 μM; read-out: Jack beans Hex. On the procedure: (§1) Inhibition Assays Against Commercial β-N-acetylglucosaminidases
(§2) Inhibition constant (Ki) values were determined by spectrophotometrically measuring the residual hydrolytic activities of the glycosidases against p-nitrophenyl N-acetyl-β-D-glucosaminide. […] Each assay was performed in phosphate-citrate buffer and the reactions were initiated by addition of the enzyme to a solution of the substrate in the absence or presence of various inhibitor concentrations. The mixture was incubated for 10-30 min at 37° C. and the reaction was quenched by addition of 1 M Na2CO3. Reaction times were appropriate to obtain 10-20% conversion of the substrate in order to achieve linear rates. The absorbance of the resulting mixture was determined at 405 nm. Approximate values of Ki were determined using a fixed concentration of substrate (around the Km value for the different glycosidases) and various inhibitor concentrations. Full Ki determinations and enzyme inhibition mode were determined from the slope of Lineweaver-Burk plots and double reciprocal analysis using a Microsoft Office Excel 2007 program.

Experiment [2] addresses β-N-acetylglucosaminidase (from bovine kidney). Kind of experiment: Inhibition assay against commercial β-N-acetylglucosaminidase (bovine kidney), p-nitrophenyl N-acetyl-β-D-glucosaminide substrate. The settings on record: pH 5.5, 37° C.; average of three determinations ± s.e.m.; NI = no inhibition detected at 200 μM; read-out: Bovine kidney Hex. Here is the method:
as §1, §2

Experiment [3] deals with β-N-acetylglucosaminidase (from human placenta). Kind of experiment: Inhibition assay against commercial β-N-acetylglucosaminidase (human placenta), p-nitrophenyl N-acetyl-β-D-glucosaminide substrate. The settings on record: pH 5.5, 37° C.; average of three determinations ± s.e.m.; read-out: Human placenta Hex. On the procedure:
as §1, §2

Another experiment concerns the target T1, hOGA (Homo sapiens, UniProt O60502).
T1 sequence (O60502 1-916): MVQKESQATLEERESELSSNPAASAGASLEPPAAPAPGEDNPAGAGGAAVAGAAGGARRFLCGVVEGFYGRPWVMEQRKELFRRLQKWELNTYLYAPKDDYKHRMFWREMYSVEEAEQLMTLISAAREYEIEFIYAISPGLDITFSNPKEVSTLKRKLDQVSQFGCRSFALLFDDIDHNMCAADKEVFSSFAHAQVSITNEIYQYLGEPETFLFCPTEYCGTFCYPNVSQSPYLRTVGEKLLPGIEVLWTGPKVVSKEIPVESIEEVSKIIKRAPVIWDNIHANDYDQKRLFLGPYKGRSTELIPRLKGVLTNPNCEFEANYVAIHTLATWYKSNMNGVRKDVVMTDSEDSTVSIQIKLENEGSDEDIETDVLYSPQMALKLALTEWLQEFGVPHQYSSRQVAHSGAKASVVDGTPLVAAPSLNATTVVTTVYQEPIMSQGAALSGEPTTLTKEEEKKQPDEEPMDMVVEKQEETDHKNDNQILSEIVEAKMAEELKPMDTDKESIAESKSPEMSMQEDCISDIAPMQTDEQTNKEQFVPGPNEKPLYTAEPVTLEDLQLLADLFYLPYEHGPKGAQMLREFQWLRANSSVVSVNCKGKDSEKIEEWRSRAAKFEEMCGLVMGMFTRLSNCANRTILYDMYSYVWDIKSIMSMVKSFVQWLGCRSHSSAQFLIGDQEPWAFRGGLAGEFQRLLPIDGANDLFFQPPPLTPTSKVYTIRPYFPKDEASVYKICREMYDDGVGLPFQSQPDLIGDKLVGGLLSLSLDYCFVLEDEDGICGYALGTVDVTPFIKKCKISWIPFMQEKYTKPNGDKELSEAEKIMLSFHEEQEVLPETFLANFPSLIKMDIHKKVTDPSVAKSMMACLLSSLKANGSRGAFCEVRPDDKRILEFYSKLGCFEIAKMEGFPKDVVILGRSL
Kind of experiment: Inhibition assay against hOGA, resorufin N-acetyl-β-D-glucosaminide fluorescence. The settings on record: 0.2 nM hOGA, 25 μM substrate, pH 7.1; Morrison Ki. Here is the method: Inhibition Assays Against hOGA
Km=25 μM was measured with these conditions. Inhibition assays were run at 0.2 nM [hOGA] in the same buffer, in the presence or absence of various concentrations of inhibitors and at a fixed substrate concentration of 25 μM and 1% DMSO. First, inhibitor was serially diluted to the desired range of concentrations in 2% DMSO buffer. Next, 50 μL of inhibitor solutions at various concentrations in 2% DMSO Buffer was added to 50 μL of 0.8 nM enzyme and allowed to incubate at 25° C. for 5 minutes. 100 uL of 50 μM and 1% DMSO substrate was then added and reaction mixture was immediately mixed and aliquoted in 45 μL triplicates to a CORNING 384 well black plate. Fluorescence signal was measured continuously for 20 minutes at 37° C. in a BioTek Neo 2 Plate reader set at excitation and emission wavelengths of 572 and 610 nm, respectively. Max reaction rates for all inhibitor concentrations were calculated within Gen5 BioTek reader software. % Activity was subsequently calculated for each inhibitor concentration against the max reaction rate of uninhibited hOGA. GraphPad Prism 2016 was used to approximate the Morrison Ki values for each inhibitor.

Experiment [4] addresses T2, Recombinant Human Hexosaminidase A (HexA) (Homo sapiens, UniProt P06865).
T2 construct: purchased R&D Systems 6237-GH-020
T2 sequence (P06865 89-529): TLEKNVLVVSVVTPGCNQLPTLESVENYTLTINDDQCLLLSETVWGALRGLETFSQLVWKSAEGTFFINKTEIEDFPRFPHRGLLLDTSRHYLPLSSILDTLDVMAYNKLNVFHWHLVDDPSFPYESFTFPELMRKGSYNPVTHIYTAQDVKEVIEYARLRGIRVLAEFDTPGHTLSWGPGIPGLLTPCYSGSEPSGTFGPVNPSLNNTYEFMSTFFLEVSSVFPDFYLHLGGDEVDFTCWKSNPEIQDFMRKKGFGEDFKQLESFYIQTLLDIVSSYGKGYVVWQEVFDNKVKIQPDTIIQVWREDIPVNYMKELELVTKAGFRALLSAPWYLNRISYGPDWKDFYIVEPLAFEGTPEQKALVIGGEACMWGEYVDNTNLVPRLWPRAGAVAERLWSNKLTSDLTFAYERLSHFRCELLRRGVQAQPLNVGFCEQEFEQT
Description: Inhibition assay against rhHexA, 4-methylumbelliferone-N-acetyl-β-D-glucosaminide fluorescence. The following applies: IC50 for lysosomal hHexA; NI = no inhibition detected at 200 μM. Here is the method: Inhibition Assays Against rhHexA
Human Hexosaminidase A (HexA) enzyme, purchased from R&D Systems (cat# 6237-GH-020), were determined by measuring the fluorescent signal corresponding to the rate of hydrolytic activity against the commercially available artificial substrate, 4-Methylumbelliferone-N-acetyl-β-D-glucosaminide. HexA activity assays were performed in a buffer of 100 mM sodium citrate, 250 NaCl, pH 4.5 and 1.0 nM [HexA], then stopped after 20 minutes with a solution of 1.0 M Tris, pH 9.5 to enhance fluorescent signal. Preliminary experiments have shown that reaction rates are linear for 20 minutes after substrate addition, and that 1.0 M Tris at pH 9.5 is sufficient for stopping activity, as signal is stable after stopping. Inhibition assays were run in the presence or absence of various concentrations of inhibitors and at a fixed substrate concentration of 100 μM and 1% DMSO. First, inhibitor was serially diluted to the desired range of concentrations in 2% DMSO buffer. Next, 25 μL, of inhibitor solutions at various concentrations in 2% DMSO Buffer was added to 25 μL, of 4.0 nM enzyme and allowed to incubate at 25° C. for 5 minutes. 50 μL of 200 μM and 1% DMSO substrate was then added and allowed to react for 20 minutes. 100 μL of stop solution was added to reaction mixture, and immediately mixed and aliquoted in 45 μL triplicates to a CORNING 384 well black plate. Fluorescence signal was measured in a BioTek Neo 2 Plate reader set at excitation and emission wavelengths of 355 and 450 nm, respectively. % Activity was subsequently calculated for each inhibitor concentration against the fluorescence signal of uninhibited HexA. […]

What is called IC50 is the concentration at which inhibition is half-maximal. Consider `CCCCN=C1SCC2C(O)C(O)C(NC(C)=O)CN12` (stereo not drawn) [Compound 1, 2-Acetamido-5-N,6-S-(N′-butyliminomethylidene)-1,2-dideoxy-6-thionojirimycin Hydrochloride], for which the Ki in experiment [1] was 0.85 ± 0.06 µM; in experiment [2], 0.57 ± 0.04 µM; in experiment [3], 0.24 ± 0.02 µM; at hOGA it was 0.0241 µM. Besides, the IC50 in experiment [4] stood at 0.99 µM.
Taken in the same sequence, the figures for `CCCCCCCCN=C1SCC2C(O)C(O)C(NC(C)=O)CN12` (stereo not drawn) [Compound 2, 2-Acetamido-1,2-dideoxy-5-N,6-S-(N′-octyliminomethylidene)-6-thionojirimycin Hydrochloride] were 1.3 ± 0.1 µM, 0.19 ± 0.02 µM, 0.24 ± 0.02 µM, 0.0202 µM and 0.58 µM.
With `CC(=O)N[C@H]1CN2/C(=N/c3ccccc3)SC[C@@H]2[C@@H](O)[C@@H]1O` [Compound 3, 2-Acetamido-1,2-dideoxy-5-N,6-S-(N′-phenyliminomethylidene)-6-thionojirimycin Hydrochloride], the Ki in experiment [1] stood at 2.8 ± 0.2 µM; in experiment [2] it was 0.7 ± 0.05 µM; in experiment [3] it was 0.58 ± 0.04 µM; on hOGA it was 0.399 µM. In experiment [4], the IC50 came out at 0.41 µM.
Take `CC(=O)N[C@H]1CN2/C(=N/Cc3cccc4ccccc34)SC[C@@H]2[C@@H](O)[C@@H]1O` [Compound 5, 2-Acetamido-5-N,6-S-(N′-1-naphthylmethyliminomethylidene)-1,2-dideoxy-6-thionojirimycin Hydrochloride]: the values for the Ki (in experiment [1]; in experiment [2]; on hOGA) were 2.4 ± 0.2 µM, 0.89 ± 0.8 µM and 0.000292 µM, respectively.
Turning to `CC(=O)N[C@H]1CN2/C(=N/Cc3ccc(F)cc3)SC[C@@H]2[C@@H](O)[C@@H]1O` [Compound 6, 2-N-Acetyl-5-N,6-S-(N′-p-fluorobenzyliminomethylidene)-1,2-dideoxy-6-thionojirimycin Hydrochloride], the Ki stood at 3.2 ± 0.3 µM in experiment [1], 1.5 ± 0.2 µM in experiment [2], 0.28 ± 0.02 µM in experiment [3] and 0.0538 µM at hOGA.
Turning to `COc1ccc(C/N=C2\SC[C@@H]3[C@@H](O)[C@H](O)[C@@H](NC(C)=O)CN23)cc1` [Compound 7, 2-N-Acetyl-5-N,6-S-(N′-p-methoxybenzyliminomethylidene)-1,2-dideoxy-6-thionojirimycin Hydrochloride], the Ki in experiment [1] was determined as 2.2 ± 0.1 µM; in experiment [2], 1.2 ± 0.1 µM; in experiment [3], 0.73 ± 0.04 µM; at hOGA, 0.0278 µM.
Taken in the same sequence, the figures for `CC(=O)N[C@H]1CN2/C(=N/Cc3ccc(C(F)(F)F)cc3)SC[C@@H]2[C@@H](O)[C@@H]1O` [Compound 8, 2-Acetamido-5-N,6-S-(N′-p-trifluoromethylbenzyliminomethylidene)-1,2-dideoxy-6-thionojirimycin hydrochloride] were 1.5 ± 0.1 µM, 0.43 ± 0.04 µM, 0.4 ± 0.03 µM and 0.0477 µM.
On to `CC(=O)N[C@H]1CN2/C(=N/Cc3ccccc3CN=[N+]=[N-])SC[C@@H]2[C@@H](O)[C@@H]1O` [Compound 9, 2-Acetamido-5-N,6-S-(N′-o-azidomethylbenzyliminomethylidene)-1,2-dideoxy-6-thionojirimycin Hydrochloride], for which the Ki turned out to be 3.07 ± 0.3 µM in experiment [1], 0.91 ± 0.09 µM in experiment [2] and 0.000278 µM at hOGA.
As to `CC(=O)N[C@H]1CN2/C(=N/Cc3cccc(CN=[N+]=[N-])c3)SC[C@@H]2[C@@H](O)[C@@H]1O` [Compound 10, 2-Acetamido-5-N,6-S-(N′-m-azidomethylbenzyliminomethylidene)-1,2-dideoxy-6-thionojirimycin Hydrochloride], the Ki in experiment [1] is 3.13 ± 0.8 µM; in experiment [2] it was 0.83 ± 0.06 µM; on hOGA, 0.000223 µM.
For `CC(=O)N[C@H]1CN2/C(=N/Cc3ccc(CN=[N+]=[N-])cc3)SC[C@@H]2[C@@H](O)[C@@H]1O` [Compound 11, 2-Acetamido-5-N,6-S-(N′-p-azidomethylbenzyliminomethylidene)-1,2-dideoxy-6-thionojirimycin Hydrochloride] the same measures were 3.4 ± 0.8 µM, 0.72 ± 0.05 µM and 0.000438 µM.
For `CC(=O)N[C@H]1CN2/C(=N/CCc3ccccc3)SC[C@@H]2[C@@H](O)[C@@H]1O` [Compound 12, 2-Acetamido-5-N,6-S-(N′-2-phenylethyliminomethylidene)-1,2-dideoxy-6-thionojirimycin Hydrochloride] the same measures were 2.45 ± 0.32 µM, 1.42 ± 0.12 µM and 0.000918 µM.
